In US11267859B2, “GM-CSF mimetics and methods of making and using same” (The Regents of the University of Colorado, a body corporate, priority 2017, dated 2022):

Columns and labels:
TF-1 cells [1] = assay: ATPlite viability assay of GM-CSF-dependent TF-1 cells grown without GM-CSF; assay type: cell-based, human; details: for activity as a GM-CSF mimetic/agonist: summary statement citing FIGS. 1A-1B, FIGS. 2A-2C; for GM-CSF receptor agonist activity (cell viability, ATPlite): TF-1 cells without GM-CSF, 1 nM, 10 nM or 50 nM
Method: FIGS. 1A-1B comprise bar graphs illustrating use of the ATPlite assay to examine the viability of the GM-CSF-dependent human erythroleukemic cell line TF-1 (Hansen, et al., 2008, Cell 134(3):496-507) treated with GM-CSF mimetics of the invention (M1, M5, or M6; 1 nM, 10, nM, or 50 nM). TF-1 cells grown in the absence of GM-CSF (control) served as a negative control, and TF-1 cells grown in the presence of GM-CSF (GM-CSF; 0.7 nM) served as a positive control. […] Error bars represent standard error of the mean. *** indicates P<0.0001, * indicates P≤0.03, compared to control.
In order to determine whether a synthetic fragment of GM-CSF or a construct comprising a combination of GM-CSF fragments linked together using PEG linkers is an agonist of the GM-CSF receptor, human cell lines dependent on GM-CSF for proliferation were employed: specifically, the human hematopoietic cell line TF-1 (Hansen, et al., 2008, Cell 134(3): 496-507) and the human cell line MOTE (Monfardini, et al., 2002, Curr Pharm Des 8(24):2185-2199) (both obtained from American Type Culture Collection, or ATCC).
In experiments with the TF-1 cell line, it was determined whether the GM-CSF mimetics of the invention were sufficient to support cell growth and viability in the absence of GM-CSF. Specifically, the cells were grown in medium without GM-CSF (control) as a negative control, in medium supplemented with GM-CSF (GM-CSF; 0.7 nM) as a positive control, or in medium supplemented with one of the GM-CSF mimetics of the invention (i.e., M1, M5, or M6; 1 nM, 10 nM, or 50 nM; FIGS. 1A-1B). Cell viability was measured using the ATPlite assay (PerkinElmer) to determine whether the GM-CSF mimetics of the invention were capable of maintaining the viability of TF-1 cells, which require GM-CSF, thus providing a measure of agonist activity.

[2] = system: transgenic mice that express the human GM-CSF receptor (hGMR mice); assay: Blood neutrophil response in transgenic hGMR mice after subcutaneous injection for three days; assay type: in vivo, mouse; details: s.c.; for percentage of neutrophils at 72 h versus 0 h (paired T-test): three days, P<0.0019 for GM-CSF, P<0.0052 for M6
Method: FIGS. 3A-3B comprise a plot illustrating % change in neutrophil levels in blood from transgenic hGMR mice (Nishijima, et al., 1995, Mol. Biol. Cell 6(5):497-508) treated with saline (3 days) as a negative control, with human GM-CSF (hGM-CSF, 5 μg/day×3 days) as a positive control, with the GM-CSF mimetic M1 (M1 5 μg/day×3 days), or with the GM-CSF mimetic M6 (M6, 5 μg/day×3 days) (FIG. 3A). Each connected symbol represents an individual hGMR mouse pre- and post-treatment (0 h and 72 h, respectively). Error bars represent standard error of the mean. […] To determine whether the PEG-based GM-CSF mimetics of the invention are active in vivo, the GM-CSF mimetic molecules M1 and M6 were tested in transgenic mice that express the human GM-CSF receptor and are responsive to human GM-CSF, referred to herein as hGMR mice (Nishijima, et al., 1995, Mol. Biol. Cell 6(5):497-508). The hGMR mice were tested for their responses to M1 or M6. Specifically, the study included four groups of mice: (1) hGMR mice injected subcutaneously with saline (n=4 mice) as a negative control (Saline); (2) hGMR mice injected subcutaneously with commercial human GM-CSF ([…]; n=13 mice) as a positive control, because these mice should respond to human GM-CSF; (3) hGMR mice injected subcutaneously with M1 (5 μg/animal/day; n=5 mice); and (4) hGMR mice injected subcutaneously with M6 (5 μg/animal/day; n=6 mice) for three days. Blood samples were collected before the mice received any injections of saline, human GM-CSF, M1, or M6, and blood samples were also collected after the three days of injections. The percentage of neutrophils present in the blood post-treatment was measured by counting from whole blood smears. FIG. 3A illustrates trends in the percentages of neutrophils in individual mice from each of the four groups; each connected symbol represents an individual hGMR mouse pre- and post-treatment (0 h and 72 h, respectively). FIG. 3B compares the changes in the percentage of neutrophils over the course of the treatment for each of the four groups.

TF-1 cells [3] = assay: Live cell counts of GM-CSF-starved TF-1 cells by flow cytometry (DAPI); assay type: cell-based, human; details: TF-1 starved of GM-CSF 24 h, FIG. 2A
Method: FIGS. 2A-2C illustrate results of experiments wherein the GM-CSF-dependent human erythroleukemic cell line TF-1 was starved of GM-CSF for 24 h prior to treatment with media containing GM-CSF, with medium containing a GM-CSF mimetic (M1, M5 or M6; 10 nM or 100 nM), or with control medium lacking GM-CSF. The cells were fed fresh medium each day to replenish indicated concentrations (10 nM or 100 nM). Live cell counts from 3-4 replicates were plotted for each of the different conditions in FIG. 2A. […] The plots were gated by front and side scatter for singlets, then gated by DAPI, wherein DAPI-positive cells were dead and DAPI-negative cells were alive, and front scatter for live cells indicated in the selected region with the cell numbers represented below the plots.
Evaluation of ability of the GM-CSF mimetics to support cell growth was carried out by measuring cell number and cell viability by flow cytometry. The TF-1 cell line was first starved of GM-CSF for 24 h, and then plated in various conditions. […] At 72 h post-treatment, the cells were treated with DAPI (1 μg/ml) to label the nuclei of dead cells and were analyzed on a Yeti cell analyzer from Propel Labs. […] Each dot represents an individual measured cell, and increased color by “heat map” indicates a large group of cells with overlapping DAPI and forward scatter area.

| Substance | activity as a GM-CSF mimetic/agonist (TF-1 cells [1]) | percentage of neutrophils at 72 h versus 0 h (paired T-test) [2] | GM-CSF receptor agonist activity (cell viability, ATPlite) (TF-1 cells [1]; 24 h post-treatment (FIG. 1A)) | GM-CSF receptor agonist activity (cell viability, ATPlite) (TF-1 cells [1]; 48 h post-treatment (FIG. 1B)) | live cell counts versus negative control (TF-1 cells [3]; 10 nM or 100 nM replenished daily, 72 h post-treatment) | % change in neutrophils versus saline control group ([2]; 5 μg/animal/day for three days, student's T-test, P<0.046, FIG. 3B) | number of live cells versus control (TF-1 cells [3]; 100 nM replenished daily, P<0.042) |
| --- | --- | --- | --- | --- | --- | --- | --- |
| DFLLVIP (SEQ ID NO: 8) [Mimetic M2, human GM-CSF peptide fragment, aa 112-118 of mature GM-CSF] | active as a GM-CSF mimetic/agonist |  |  |  |  |  |  |
| GM-CSF: granulocyte-macrophage colony-stimulating factor; commercial human GM-CSF used as positive control |  | statistically significantly higher at 72 h than at 0 h |  |  |  |  |  |
| QPWEHVNAIQEAR (SEQ ID NO: 7) [Mimetic M1] | active as a GM-CSF mimetic/agonist |  | GM-CSF receptor agonist activity | the agonist effect is also replicated | significant increase in the cell counts over the negative control |  |  |
| QPWEHVNAIQEAR {PEG6} DFLLVIP {PEG6} DFLLVIP {PEG6} QPWEHVNAIQEAR [Mimetic M6] |  | statistically significantly higher at 72 h than at 0 h | GM-CSF receptor agonist activity | the agonist effect is also replicated |  | statistically significantly higher than that for the saline control group | significantly lower than control |
| QPWEHVNAIQEAR {PEG6} DFLLVIP {PEG6} QPWEHVNAIQEAR {PEG6} DFLLVIP [Mimetic M5] |  |  | GM-CSF receptor agonist activity | the agonist effect is also replicated |  |  |  |
